The values that follow are results of earlier work, collected in patent US20110287061A1 (priority 2010, published 2011).

Data set [1] relates to gray hair. The conditions noted are these: 50 patients with gray hair, daily administration for two months.
The subject of data set [2] is gray hair. The note with it: of 20 patients taking varying amounts daily for other conditions.
Another data set relates to hair loss. The note with it: administered together with Saw Palmetto; individuals with mild to moderate hair loss.

For `Nc1ccc(C(=O)O)cc1` [PABA, 4-aminobenzoic acid], the hair colour change entry in the data set with gray hair [1] is given as “marked darkening of the hair”. In the data set with gray hair [2], the “cases of dramatic hair color change and hair re-growth” value is listed as 5 cases.
For the compound `CC[C@H](CC[C@@H](C)[C@H]1CC[C@H]2[C@@H]3CC=C4C[C@@H](O)CC[C@]4(C)[C@H]3CC[C@]12C)C(C)C` [beta-sitosterol], in the data set on hair loss, the hair growth result is “healthy hair growth”.
